The values that follow are results of earlier work, collected in patent US20040180086A1 (priority 2002, published 2004).

This series relates to decarboxylation of peripheral levodopa. The following applies: carbidopa administered in combination with levodopa.

For the molecule `C[C@@](Cc1ccc(O)c(O)c1)(NN)C(=O)O` [Carbidopa, S-α-hydrazino-3,4-dihydroxy-α-methylbenzenepropanoic acid monohydrate], the “reduction of the amount of levodopa required to produce a given response” value is listed as “about 75%”.
